Assay results from publication PMC8767159, “Multiparameter Optimization of Trypanocidal Cruzain Inhibitors With In Vivo Activity and Favorable Pharmacokinetics” (Frontiers in Pharmacology, 2022).

Assays:
[1] = Fraction unbound by equilibrium dialysis; type: in vitro ADME; details: pH 7.4
Description: The fraction unbound (fu) ([Masimirembwa et al., 2003]) of the test compounds was determined after incubation with different media, namely, plasma, microsomes, and buffer with 10% FCS. Equilibrium dialysis was performed in a 96-well plate (HT-Dialysis, Gales Ferry, CT) in which each well was divided by a semipermeable membrane (12–14 kDa cutoff). The test compounds diluted in either plasma, microsome suspension, or buffer were added to one side of the membrane. Potassium phosphate buffer (50 mM, pH 7.4) was added to the other side of the membrane. A standard curve was used to calculate the compound concentration (fu) on each side of the membrane. Stock solutions of each compound were prepared in 100% DMSO to obtain a final concentration of 1 mM. The following compound concentrations were used: 1, 2, 20, 200, 2,000 and 5,000 nM. To 500 μl of medium, 0.5 μl of the compound stock solution was added, and this was applied to one side of the well. Each compound was evaluated in triplicate. Next, the plate was assembled, sealed, and incubated at 37°C under rotation (150 rpm) for 4 h. After the incubation period, the plates were subjected to LC-MS/MS.

[2] = Parallel artificial membrane permeability assay (PAMPA); type: in vitro ADME; set-up: PAMPA: unit: 1e-6 cm/s; details: for PAMPA: unit not given
Description: The permeability of the compounds was assessed using the PAMPA method ([Yu et al., 2015]). The test compounds were dissolved in DMSO to a concentration of 5 mM. Next, the compounds were diluted in a stock plate in saline phosphate buffer (PBS), pH 6.5, containing 1% DMSO to a concentration of 1 µM. Then, 300 µl of each test compound was added to the donor plate. Afterward, 200 µl of PBS buffer, pH 7.4, was added to the acceptor plate. The donor plate was attached to the acceptor plate. The assembled acceptor-donor plate was then incubated at 37°C for 5 h under gentle agitation. To analyze the concentration of the compounds by mass spectrometry, two analysis plates (one for the donor and another for the acceptor plate) containing 300 μl of MEOH:ACN 50:50 were prepared. To the donor analysis plate, 90 µl of PBS, pH 6.5, and 10 µl of the content of the donor plate were added. For the acceptor analysis plate, 100 µl of the content of the acceptor plate was added. To monitor any potential decomposition/intrinsic instability of the test compounds in solution, samples from the stock plate were subjected to LC-MS/MS. The compounds that presented Pe ≥ 1.5 × 10^−6 cm/s were classified as permeable, while compounds that presented Pe < 1.5 × 10^−6 cm/s were considered poorly permeable or nonpermeable.

[3] = Experimental distribution coefficient (eLogD) by LC retention time; type: physicochemical; details: for chromatographic logD: C18 column (LC retention time)
Description: For the eLogD assays ([Waring, 2010]), each compound (5 μl) from a 5 mM stock solution was diluted in 245 μl of a solution containing buffers A (5% MeOH, 10 mM ammonium acetate, pH 7.4) and B (100% MeOH, pH 7.4) (50:50). Nine control compounds with known eLogD and column retention times (acyclovir, atenolol, antipyrine, fluconazole, metoprolol, carbamazepine, ketoconazole, tolnaftate, and amiodarone; eLogD values ranging from −1.86 to 6.1) were subjected to LC-MS/MS in triplicate before and after the analysis of the test compounds. Retention times were recorded for each control and test compound in a C18 column. The retention time of each control compound was plotted against the respective eLogD values described in the literature ([Lombardo et al., 2002]; [Lombardo et al., 2004]; [Alelyunas et al., 2010]). The resulting linear equation (y = mx + b) was used to calculate the eLogD values of the test compounds, in which x is the retention time in minutes and y is the eLogD value.

[4] = PAMPA, Table 3, donor pH 6.5, acceptor pH 7.4, 5 h
[5] = Table 5, fraction unbound used to correct CLint
[6] = Table 6, fraction unbound used to correct plasma clearance
[7] = Table S6, fraction unbound used to correct plasma clearance

Row | SMILES | fraction unbound at 4 h, 1 µM ([1]; Table S5, fraction unbound) | Papp at 5 h, 1 µM [2, 4] [×10⁻⁶ cm/s] | PAMPA ([2]; Table S5) | chromatographic logD ([3]; pH 7.4, Table 3, pH 7.4) | eLogD ([3]; Table S5) | fraction unbound at 4 h, 1 µM [1, 5] | Papp at 5 h, 1 µM ([2]; PAMPA, Table 5) [×10⁻⁶ cm/s] | chromatographic logD ([3]; pH 7.4, Table 5) | fraction unbound at 4 h, 1 µM [1, 6] | Papp at 5 h, 1 µM ([2]; Table S5, unit inferred) [×10⁻⁶ cm/s] | chromatographic logD ([3]; pH 7.4, Table S5) | also measured
1 | O=C(COc1ccccc1)NCCc1nc2ccccc2n1CCCOc1ccccc1 [Compound 24] | 0.27 | 2.29 | 2.29 | 4.45 | 4.45 |  |  |  |  |  |  | 
2 | O=C(COc1ccc2ccccc2c1Br)NCCc1nc2ccccc2[nH]1 [Compound 34] |  |  |  |  |  | 0.1 | 0.3 | 4.4 |  |  |  | 
3 | O=C(COc1ccc2ccccc2c1)NCCc1nc2ccccc2[nH]1 [Compound 35] |  |  |  |  |  | 0.5 | 0.7 | 3.9 | 0.02 |  |  | 
4 | Cc1ccccc1OCC(=O)NCCc1nc2ccccc2n1CCOc1ccccc1Br [Compound 22] | 0.03 |  |  |  |  |  |  |  |  | 0.04 | 4.81 | 
5 | Cc1ccccc1OCC(=O)NCCc1nc2ccccc2o1 [Compound 37] |  |  |  |  |  | 0.9 | 19.7 | 3.9 | 0.05 |  |  | 
6 | O=C(COc1ccc2cc(O)ccc2c1)NCCc1nc2ccccc2[nH]1 [Compound 10] | 0.82 | 0.21 | 0.21 | 3.17 | 3.17 |  |  |  |  |  |  | fraction unbound at 4 h, 1 µM [1, 7]: 0.34
7 | O=C(COc1ccccc1Br)NCCc1nc2ccccc2[nH]1 [Compound 18] |  |  |  |  |  | 0.6 | 5.6 | 3.9 | 0.03 |  |  | 
8 | O=C(COc1ccc2c(C(=O)O)cccc2c1)NCCc1nc2ccccc2[nH]1 [Compound 15] | 1 |  |  |  |  |  |  |  |  |  | 1.31 | 
9 | O=C(COc1ccccc1)NCCc1nc2ccccc2n1CCOc1ccccc1Br [Compound 19] | 0.12 |  |  |  |  |  |  |  |  | 0.08 | 4.5 | 
10 | Nc1cccc(OCC(=O)NCCc2nc3ccccc3[nH]2)c1 [Compound 9] | 0.99 | 0.38 | 0.38 | 1.88 | 1.88 |  |  |  |  |  |  | 
11 | O=C(COc1ccc(N2C(=O)CCC2=O)cc1)NCCc1nc2ccccc2[nH]1 [Compound 4] | 0.99 |  |  |  |  |  |  |  |  | 0.17 | 1.59 | 
12 | O=C(COc1cccc(N2C(=O)CCC2=O)c1)NCCc1nc2ccccc2[nH]1 [Compound 6] | 1 |  |  |  |  |  |  |  |  | 0.2 | 1.8 | 
13 | CC(=O)Nc1cccc(OCC(=O)NCCc2nc3ccccc3[nH]2)c1 [Compound 3] | 1 | 0.17 | 0.17 | 2.26 | 2.26 |  |  |  |  |  |  | fraction unbound at 4 h, 1 µM [1, 7]: 0.16
14 | O=C(COc1ccccc1[N+](=O)[O-])NCCc1nc2ccccc2[nH]1 [Compound 32] |  |  |  |  |  | 0.7 | 4.9 | 3.6 | 0.04 |  |  | 
15 | O=C(CCc1ccccc1Br)NCCc1nc2ccccc2[nH]1 [Compound 36] |  |  |  |  |  | 0.8 | 4.7 | 3.8 | 0.04 |  |  | 
16 | O=C(COc1ccccc1)NCCc1nc2ccccc2n1-c1ccccc1 [Compound 30] | 0.63 |  |  |  |  |  |  |  |  | 17.8 | 4.04 | 
17 | O=C(COc1ccccc1)NCCc1nc2ccccc2n1CCOCc1ccccc1 [Compound 21] | 0.47 |  |  |  |  |  |  |  |  | 3.98 | 4.24 | 
18 | O=C(Cn1ccnc1[N+](=O)[O-])NCc1ccccc1 [BZ, benznidazole, reference compound] |  | 3.17 | 3.17 | 0.84 | 0.84 | 1 | 3.2 | 0.8 | 0.99 |  |  | 
19 | O=C(COc1ccccc1)NCCc1nc2ccccc2[nH]1 [Compound 1] | 1 | 4.21 | 4.21 | 2.9 | 2.90 |  |  |  |  |  |  | fraction unbound at 4 h, 1 µM [1, 7]: 0.23
20 | N#Cc1ccccc1OCC(=O)NCCc1nc2ccccc2[nH]1 [Compound 31] |  |  |  |  |  | 0.9 | 2.2 | 2.6 | 0.15 |  |  | 
21 | NC(=O)Cn1c(CCNC(=O)COc2ccccc2)nc2ccccc21 [Compound 28] | 0.98 | 0.71 | 0.71 | 2.16 | 2.16 |  |  |  |  |  |  | fraction unbound at 4 h, 1 µM [1, 7]: 0.18
22 | CC(=O)Nc1ccc(OCC(=O)NCCc2nc3ccccc3[nH]2)cc1 [Compound 2] | 1 | 0.21 | 0.21 | 1.92 | 1.92 |  |  |  |  |  |  | fraction unbound at 4 h, 1 µM [1, 7]: 0.49
23 | O=C(COc1ccc(Br)cc1)NCCc1nc2ccccc2[nH]1 [Compound 33] |  |  |  |  |  | 0.8 | 0.7 | 2.8 | 0.16 |  |  | 
24 | O=C(COc1ccc2ccc(O)cc2c1)NCCc1nc2ccccc2[nH]1 [Compound 11] | 0.67 | 0.17 |  |  | 3.37 |  |  |  |  | 0.13 |  | fraction unbound at 4 h, 1 µM [1, 7]: 0.03; eLogD ([3]; Table 3, pH 7.4): 2.26
25 | O=C(COc1ccc(NC(=O)CCCO)cc1)NCCc1nc2ccccc2[nH]1 [Compound 5] | 0.96 |  |  |  |  |  |  |  |  | 0.02 | 1.83 | 
26 | COc1ccc2cc(OCC(=O)NCCc3nc4ccccc4[nH]3)ccc2c1 [Compound 12] |  | 0.34 | 0.34 | 3.89 | 3.89 |  |  |  |  |  |  | 
